In data set [1] the target is HLA-DR1 (DRA*01:01/DRB1*01:01) extracellular domain (human). As to the kind of experiment: fluorescence polarisation.
For data set [2] the following is noted: complex with DR2b, 2 minutes of UV exposure; cited from earlier work. From the text: In the only previous report in which a photocleavable peptide was used with a MHC-II protein, the complex studied was DR2b (HLA-DRB1*15:01) with a peptide derived from human myelin basic protein (MBP85-99) with the photocleavable group replacing the residue at P4 position (ENPVVHFXKNIVTPR). […] Thus in this case the peptide is cleaved efficiently and the ...

Data set [3] has as its target T1, HLA-DR1 (DRA*01:01/DRB1*01:01) (Homo sapiens, UniProt P01903+P01911, A100R/D57E/F55L/F60I/F76Y/I96L/L162R/M171V/P40L/Q125E/R42F/V115G/Y59C).
T1 construct: HLA-DR1 (DRA*01:01/DRB1*01:01) extracellular domain was expressed in Drosophila S2 cells; made in house
As to the kind of experiment: biochemical. The class given is binding. The conditions noted are these: for inhibition at 0.000256 µM / inhibition at 0.00128 µM / inhibition at 0.0064 µM / inhibition at 0.032 µM / inhibition at 0.16 µM / inhibition at 0.8 µM / inhibition at 4 µM / inhibition at 20 µM / inhibition at 0.256 µM / inhibition at 1.28 µM / inhibition at 6.4 µM / inhibition at 32 µM / inhibition at 160 µM: read-out: fraction of labeled HA binding inhibited.

Data set [4] has as its target DR1 (Homo sapiens, UniProt P01903+P01911, A100R/D57E/F55L/F60I/F76Y/I96L/L162R/M171V/P40L/Q125E/R42F/V115G/Y59C). The following applies: binding to DR1, estimated; cited from earlier work.

Read-outs that look alike come from different tables or passages of the source. Ends that are not written are not given here. Peptide text beside a SMILES is read from it.

With “L1MxN photocleavable peptide (Ac-HLQMxNALAL)”, the IC50 in data set [1] is 4.1 µM.
With ENPVVHFXKNIVTPR, the “parent peptide after UV exposure” value in data set [2] is recorded as “almost undetectable”.
For `CSCC[C@H](NC(=O)[C@H](CCC(N)=O)NC(=O)[C@H](Cc1ccc(O)cc1)NC(C)=O)C(=O)NC(CC(=O)N[C@@H](CC(N)=O)C(=O)N[C@@H](C)C(=O)N[C@@H](CC(C)C)C(=O)N[C@@H](C)C(=O)N[C@@H](CC(C)C)C(=O)O)c1ccccc1[N+](=O)[O-]` (some centres unmarked) [Peptide Y1MxN] (HELM PEPTIDE1{[ac].Y.Q.M.[O=C(CC(N[*:1])c1ccccc1[N+](=O)[O-])[*:2]].N.A.L.A.L}$$$$V2.0), the inhibition at 0.000256 µM in data set [3] (72 h, Fig 2, [Pep] 0.000256 uM, 100 nM DR1, 25 nM Alexa488-labeled HA, 3 days, FP, mean of two experiments in triplicate) was -1.47%. Also, the inhibition at 0.00128 µM in data set [3] (72 h, Fig 2, [Pep] 0.00128 uM, 100 nM DR1, 25 nM Alexa488-labeled HA, 3 days, FP, mean of two experiments in triplicate) is 4.96%. Further, the inhibition at 0.0064 µM in data set [3] (72 h, Fig 2, [Pep] 0.0064 uM, 100 nM DR1, 25 nM Alexa488-labeled HA, 3 days, FP, mean of two experiments in triplicate) was -1.42%. Besides, the inhibition at 0.032 µM in data set [3] (72 h, Fig 2, [Pep] 0.032 uM, 100 nM DR1, 25 nM Alexa488-labeled HA, 3 days, FP, mean of two experiments in triplicate) was 13.4%. For the same compound, the inhibition at 0.16 µM in data set [3] (72 h, Fig 2, [Pep] 0.16 uM, 100 nM DR1, 25 nM Alexa488-labeled HA, 3 days, FP, mean, n = 3) is 39.7%. In addition, the inhibition at 0.8 µM in data set [3] (72 h, Fig 2, [Pep] 0.8 uM, 100 nM DR1, 25 nM Alexa488-labeled HA, 3 days, FP, mean of two experiments in triplicate) is 69.7%. In data set [3] (72 h, Fig 2, [Pep] 4 uM, 100 nM DR1, 25 nM Alexa488-labeled HA, 3 days, FP, mean of two experiments in triplicate), the inhibition at 4 µM stood at 90%. Also, the inhibition at 20 µM in data set [3] (72 h, Fig 2, [Pep] 20 uM, 100 nM DR1, 25 nM Alexa488-labeled HA, 3 days, FP, mean of two experiments in triplicate) turned out to be 96.1%.
Turning to “HA306-318: immunodominant viral epitope from influenza virus hemagglutinin (Ac-PRYVKQNTLRLAT; not fully specified (residue 5); also: label on K5, type not given here)”, the Kd in data set [4] is 13 nM.
Consider `CC(=O)N[C@@H](Cc1ccc(O)cc1)C(=O)N[C@H](C(=O)N[C@@H](CCCCN)C(=O)NC(CC(=O)N[C@@H](CC(N)=O)C(=O)N[C@H](C(=O)N[C@@H](CC(C)C)C(=O)N[C@@H](CCCNC(=N)N)C(=O)N[C@@H](CC(C)C)C(=O)N[C@@H](C)C(=O)N[C@H](C(=O)O)[C@@H](C)O)[C@@H](C)O)c1ccccc1[N+](=O)[O-])C(C)C` (some centres unmarked) [Ac-photoHA-Δ1–2], for which, in data set [3] (72 h), the inhibition at 0.256 µM was -1.47%, the inhibition at 1.28 µM was -1.61%, the inhibition at 6.4 µM was -1.21% and the inhibition at 32 µM was found to be 3.82%. Further, the inhibition at 160 µM in data set [3] (72 h) worked out at 39.8%.
Consider `CC(C)C[C@H](NC(=O)[C@H](CCCNC(=N)N)NC(=O)[C@H](CC(C)C)NC(=O)[C@@H](NC(=O)[C@H](CC(N)=O)NC(=O)CC(NC(=O)[C@H](CCCCN)NC(=O)[C@@H](NC(=O)[C@@H](N)Cc1ccc(O)cc1)C(C)C)c1ccccc1[N+](=O)[O-])[C@@H](C)O)C(=O)N[C@@H](C)C(=O)N[C@H](C(=O)O)[C@@H](C)O` (some centres unmarked) [photoHA-Δ1–2], for which, in data set [3] (72 h), the inhibition at 0.256 µM was -1.94%, the inhibition at 1.28 µM is -1.83%, the inhibition at 6.4 µM is -1.22% and the inhibition at 32 µM was -0.549%. Also, the inhibition at 160 µM in data set [3] (72 h) came to 9.88%.
For the compound `CSCC[C@H](NC(=O)[C@H](CCC(N)=O)NC(=O)[C@@H](NC(=O)[C@H](Cc1c[nH]cn1)NC(C)=O)C(C)C)C(=O)NC(CC(=O)N[C@@H](CC(N)=O)C(=O)N[C@@H](C)C(=O)N[C@@H](CC(C)C)C(=O)N[C@@H](C)C(=O)N[C@@H](CC(C)C)C(=O)O)c1ccccc1[N+](=O)[O-]` (some centres unmarked) [Peptide V1MxN] (HELM PEPTIDE1{[ac].H.V.Q.M.[O=C(CC(N[*:1])c1ccccc1[N+](=O)[O-])[*:2]].N.A.L.A.L}$$$$V2.0), in data set [3] (72 h), the inhibition at 0.000256 µM was -0.0001%, the inhibition at 0.00128 µM turned out to be 3%, the inhibition at 0.0064 µM came out at 5.87% and the inhibition at 0.032 µM came out at 4.84%. Further, in data set [3] (72 h), the inhibition at 0.16 µM came to 1.29%, the inhibition at 0.8 µM turned out to be 10.9%, the inhibition at 4 µM came to 34.5% and the inhibition at 20 µM worked out at 92.8%. Moreover, the IC50 in data set [3] (SD) amounted to 5400 ± 341 nM.
As to `CC(C)C[C@H](NC(=O)[C@H](CCCNC(=N)N)NC(=O)[C@H](CC(C)C)NC(=O)[C@@H](NC(=O)[C@H](CC(N)=O)NC(=O)CC(NC(=O)[C@H](CCCCN)NC(=O)[C@@H](NC(=O)[C@H](Cc1ccc(O)cc1)NC(=O)[C@H](CCCNC(=N)N)NC(=O)[C@@H]1CCCN1)C(C)C)c1ccccc1[N+](=O)[O-])[C@@H](C)O)C(=O)N[C@@H](C)C(=O)N[C@H](C(=O)O)[C@@H](C)O` (some centres unmarked) [photoHA], in data set [3] (72 h), the inhibition at 0.256 µM was -1.65%, the inhibition at 1.28 µM is -2.9%, the inhibition at 6.4 µM is -1.3% and the inhibition at 32 µM was found to be 22.2%. Besides, in data set [3] (72 h), the inhibition at 160 µM is 66.3%. Besides, the midpoint of inhibition in data set [3] (SD), the IC50, lay at 92 ± 2 nM.
“V1MxN photocleavable peptide (Ac-HVQMxNALAL)” yielded an IC50 in data set [1] of 5.4 µM.
In the case of “Ac-PRYVKQNTLRLAT [HA, reference compound]”, in data set [3] (72 h), the inhibition at 0.0064 µM is 7.96%, the inhibition at 0.032 µM was 48.7%, the inhibition at 0.16 µM was found to be 70.6% and the inhibition at 0.256 µM was -1.7%. Also, in data set [3] (72 h), the inhibition at 0.8 µM came out at 95%, the inhibition at 1.28 µM is -1.55%, the inhibition at 4 µM turned out to be 99% and the inhibition at 6.4 µM is -0.259%. Besides, in data set [3] (72 h), the inhibition at 20 µM turned out to be 104%, the inhibition at 32 µM worked out at 29.5% and the inhibition at 160 µM stood at 76.5%. In data set [3] (competition with 25 nM Alexa488-labeled HA for DR1 (100 nM per method, 150 nM per Fig 7/8 legends), 37°C, 72 h, fluorescence polarization, mean ± SD of two experiments, read-out: IC50), the IC50 worked out at 40 nM.
“Y1MxN photocleavable peptide (Ac-YQMxNALAL)” had an IC50 in data set [1] of 0.323 µM.
Regarding `CSCC[C@H](NC(=O)[C@H](CCC(N)=O)NC(=O)[C@H](CC(C)C)NC(=O)[C@H](Cc1c[nH]cn1)NC(C)=O)C(=O)NC(CC(=O)N[C@@H](CC(N)=O)C(=O)N[C@@H](C)C(=O)N[C@@H](CC(C)C)C(=O)N[C@@H](C)C(=O)N[C@@H](CC(C)C)C(=O)O)c1ccccc1[N+](=O)[O-]` (some centres unmarked) [Peptide L1MxN] (HELM PEPTIDE1{[ac].H.L.Q.M.[O=C(CC(N[*:1])c1ccccc1[N+](=O)[O-])[*:2]].N.A.L.A.L}$$$$V2.0), in data set [3] (72 h), the inhibition at 0.000256 µM was -0.215%, the inhibition at 0.00128 µM was -0.407%, the inhibition at 0.0064 µM was -1.67% and the inhibition at 0.032 µM is -1.44%. For the same compound, in data set [3] (72 h), the inhibition at 0.16 µM amounted to 2.63%, the inhibition at 0.8 µM stood at 13%, the inhibition at 4 µM amounted to 49.4% and the inhibition at 20 µM is 86.9%. Moreover, half-maximal inhibition in data set [3] (SD) (IC50) was put at 4100 ± 298 nM.
With `CC(=O)N1CCC[C@H]1C(=O)N[C@@H](CCCNC(=N)N)C(=O)N[C@@H](Cc1ccc(O)cc1)C(=O)N[C@H](C(=O)N[C@@H](CCCCN)C(=O)NC(CC(=O)N[C@@H](CC(N)=O)C(=O)N[C@H](C(=O)N[C@@H](CC(C)C)C(=O)N[C@@H](CCCNC(=N)N)C(=O)N[C@@H](CC(C)C)C(=O)N[C@@H](C)C(=O)N[C@H](C(=O)O)[C@@H](C)O)[C@@H](C)O)c1ccccc1[N+](=O)[O-])C(C)C` (some centres unmarked) [Ac-photoHA], in data set [3] (72 h), the inhibition at 0.256 µM was -1.71%, the inhibition at 1.28 µM was -3.02%, the inhibition at 6.4 µM was -0.583% and the inhibition at 32 µM was determined as 10%. Also, the inhibition at 160 µM in data set [3] (72 h) worked out at 59%. The 50% inhibitory concentration (IC50) in data set [3] (competition with 25 nM Alexa488-labeled HA for DR1 (100 nM per method, 150 nM per Fig 7/8 legends), 37°C, 72 h, fluorescence polarization, mean ± SD of two experiments, SD, read-out: IC50) was determined as 134 ± 2 nM.
